What all share (format): cell-based
The target in one assay is T1, human TLR7 (Homo sapiens, UniProt Q9NYK1).
T1 construct: host or cells: HEK-Blue cells (HEK293-derived reporter line)
T1 sequence (Q9NYK1 27-1049): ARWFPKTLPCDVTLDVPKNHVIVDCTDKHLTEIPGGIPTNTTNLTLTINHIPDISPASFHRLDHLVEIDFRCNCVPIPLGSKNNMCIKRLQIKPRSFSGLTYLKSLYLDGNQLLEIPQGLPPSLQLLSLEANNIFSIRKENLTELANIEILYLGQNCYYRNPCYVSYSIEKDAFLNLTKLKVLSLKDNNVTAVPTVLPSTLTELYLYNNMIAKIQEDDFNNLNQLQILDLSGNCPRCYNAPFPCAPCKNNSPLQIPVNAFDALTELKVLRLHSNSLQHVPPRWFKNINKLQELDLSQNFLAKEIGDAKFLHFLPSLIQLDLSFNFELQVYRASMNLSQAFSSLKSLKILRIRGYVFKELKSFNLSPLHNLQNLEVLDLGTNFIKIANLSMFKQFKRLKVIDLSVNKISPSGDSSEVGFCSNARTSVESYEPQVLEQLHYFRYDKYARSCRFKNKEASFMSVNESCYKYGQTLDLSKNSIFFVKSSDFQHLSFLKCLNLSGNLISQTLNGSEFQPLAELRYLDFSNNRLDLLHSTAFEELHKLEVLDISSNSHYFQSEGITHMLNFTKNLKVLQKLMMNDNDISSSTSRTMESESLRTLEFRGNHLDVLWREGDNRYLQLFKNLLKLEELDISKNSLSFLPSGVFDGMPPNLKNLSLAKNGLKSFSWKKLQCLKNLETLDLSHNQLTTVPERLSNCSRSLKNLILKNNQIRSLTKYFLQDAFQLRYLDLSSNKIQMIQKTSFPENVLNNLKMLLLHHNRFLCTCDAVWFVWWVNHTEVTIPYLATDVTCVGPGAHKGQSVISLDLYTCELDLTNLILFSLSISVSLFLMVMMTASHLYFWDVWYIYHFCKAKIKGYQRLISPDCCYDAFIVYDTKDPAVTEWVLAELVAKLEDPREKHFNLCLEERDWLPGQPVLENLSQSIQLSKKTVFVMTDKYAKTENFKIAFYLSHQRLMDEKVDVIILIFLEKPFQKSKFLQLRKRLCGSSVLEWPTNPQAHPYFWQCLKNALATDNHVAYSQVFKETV
The assay is described as follows: TLR7 inhibition reporter assay (HEK-Blue cells, secreted embryonic alkaline phosphatase reporter). Conditions: HEK-Blue cells overexpressing human TLR7, stimulated with gardiquimod 7.5 μM; read-out: TLR 7 IC50. In outline: (§1)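 Agonist-driven SEAP output was measured in HEK-Blue reporter cells carrying human TLR7 (gardiquimod 7.5 μM), TLR8 (R848 15.9 μM) or TLR9 (ODN2006 5 nM). Compounds at 0.05 nM–50 μM final were added 30 min before stimulation at room temperature. After 22 h at 37 °C, percent inhibition was taken against agonist/DMSO wells and a reference inhibitor.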
(In a reporter assay the amount or activity of a reporter protein is the signal.)

The target of another assay is T2, human TLR8 (Homo sapiens, UniProt Q9NR97).
T2 construct: host or cells: HEK-Blue cells (HEK293-derived reporter line)
T2 sequence (Q9NR97 27-1041): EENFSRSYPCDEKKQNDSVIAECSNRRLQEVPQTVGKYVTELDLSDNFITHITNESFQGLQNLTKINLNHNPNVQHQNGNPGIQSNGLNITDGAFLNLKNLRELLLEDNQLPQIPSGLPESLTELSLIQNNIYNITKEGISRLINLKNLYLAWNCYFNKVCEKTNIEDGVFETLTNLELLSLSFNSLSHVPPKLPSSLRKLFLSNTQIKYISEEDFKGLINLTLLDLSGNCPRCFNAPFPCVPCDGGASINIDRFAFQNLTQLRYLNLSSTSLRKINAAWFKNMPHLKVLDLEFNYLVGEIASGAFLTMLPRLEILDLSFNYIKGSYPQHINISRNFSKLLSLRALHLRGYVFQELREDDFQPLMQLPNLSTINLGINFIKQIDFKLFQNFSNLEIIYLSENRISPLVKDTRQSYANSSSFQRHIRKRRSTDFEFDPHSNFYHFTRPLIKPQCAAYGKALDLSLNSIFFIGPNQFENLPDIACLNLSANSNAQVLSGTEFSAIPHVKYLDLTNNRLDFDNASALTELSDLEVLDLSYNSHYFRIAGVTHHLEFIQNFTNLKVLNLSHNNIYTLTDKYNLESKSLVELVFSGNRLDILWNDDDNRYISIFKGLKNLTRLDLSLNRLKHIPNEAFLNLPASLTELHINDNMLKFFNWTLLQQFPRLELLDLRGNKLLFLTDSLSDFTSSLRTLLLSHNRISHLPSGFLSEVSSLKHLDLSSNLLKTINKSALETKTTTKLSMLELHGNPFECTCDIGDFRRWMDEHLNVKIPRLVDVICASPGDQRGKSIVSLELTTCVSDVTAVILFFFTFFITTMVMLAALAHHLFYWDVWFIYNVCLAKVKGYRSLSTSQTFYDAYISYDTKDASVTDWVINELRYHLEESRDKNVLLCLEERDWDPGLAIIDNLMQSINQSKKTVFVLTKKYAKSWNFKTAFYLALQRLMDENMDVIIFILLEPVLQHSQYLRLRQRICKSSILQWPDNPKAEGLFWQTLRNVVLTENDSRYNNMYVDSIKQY
The experiment in a line: TLR8 inhibition reporter assay (HEK-Blue cells, secreted embryonic alkaline phosphatase reporter). As to conditions: HEK-Blue cells overexpressing human TLR8, stimulated with R848 15.9 μM; read-out: TLR 8 IC50. Put shortly:
as §1

For a further assay, the target named is T3, human TLR9 (Homo sapiens, UniProt Q9NR96).
T3 construct: host or cells: HEK-Blue cells (HEK293-derived reporter line)
T3 sequence (Q9NR96 26-1032): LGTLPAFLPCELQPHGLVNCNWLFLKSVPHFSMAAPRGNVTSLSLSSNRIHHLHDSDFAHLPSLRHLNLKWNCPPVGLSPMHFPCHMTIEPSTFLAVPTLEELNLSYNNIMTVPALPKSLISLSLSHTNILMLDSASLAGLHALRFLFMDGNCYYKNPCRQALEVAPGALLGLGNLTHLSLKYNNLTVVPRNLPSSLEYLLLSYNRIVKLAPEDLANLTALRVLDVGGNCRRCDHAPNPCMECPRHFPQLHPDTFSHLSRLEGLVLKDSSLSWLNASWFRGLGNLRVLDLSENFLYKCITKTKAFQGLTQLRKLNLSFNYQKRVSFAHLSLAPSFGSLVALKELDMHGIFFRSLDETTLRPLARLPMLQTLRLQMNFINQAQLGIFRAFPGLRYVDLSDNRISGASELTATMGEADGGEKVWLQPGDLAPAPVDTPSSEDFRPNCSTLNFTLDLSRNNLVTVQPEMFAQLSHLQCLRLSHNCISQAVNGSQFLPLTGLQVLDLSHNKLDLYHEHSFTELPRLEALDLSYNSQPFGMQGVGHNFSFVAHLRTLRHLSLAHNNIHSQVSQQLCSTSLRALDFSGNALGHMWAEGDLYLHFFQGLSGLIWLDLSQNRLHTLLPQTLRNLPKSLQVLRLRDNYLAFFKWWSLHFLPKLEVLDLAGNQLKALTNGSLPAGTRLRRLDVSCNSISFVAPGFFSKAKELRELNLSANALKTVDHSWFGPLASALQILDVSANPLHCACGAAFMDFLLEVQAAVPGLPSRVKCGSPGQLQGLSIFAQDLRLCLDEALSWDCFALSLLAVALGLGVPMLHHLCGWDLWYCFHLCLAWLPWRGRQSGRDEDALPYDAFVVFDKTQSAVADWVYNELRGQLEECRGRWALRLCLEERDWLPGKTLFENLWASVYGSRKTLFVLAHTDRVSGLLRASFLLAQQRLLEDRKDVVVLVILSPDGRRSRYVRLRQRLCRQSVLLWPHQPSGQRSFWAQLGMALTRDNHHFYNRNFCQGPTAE
The experiment in a line: TLR9 inhibition reporter assay (HEK-Blue cells, secreted embryonic alkaline phosphatase reporter). In outline:
as §1

Setting [1] is: HEK-Blue cells overexpressing human TLR9, stimulated with ODN2006 5 nM, read-out: TLR 9 IC50.
The mark [2] stands for this setting: HEK-Blue human TLR9 reporter cells.

Like-named read-outs stand apart in the source and are kept apart here.

By IC50 is commonly meant the concentration that inhibits the measured activity by half. Turning to `Cn1c(-c2ccc(S(C)(=O)=O)cc2)nc2c(F)cc(C3CCN(C4CCCN(CC5CC5)CC4)CC3)cc21` (single isomer, unassigned) [Example 299, 6-(1-(1-(cyclopropylmethyl)azepan-4-yl)piperidin-4-yl)-4-fluoro-1-methyl-2-(4-(methylsulfonyl)phenyl)-1H-benzo[d]imidazole], the IC50 at human TLR7 is 2100 nM; on human TLR8, above 50000 nM; on human TLR9 (setting [1]), 3.3 nM; against human TLR9 (setting [2]), 3.3 nM.
As for `COCCN1CCCC(N2CCC(c3cc(F)c4nc(-c5ccc(S(C)(=O)=O)cc5)n(C)c4c3)CC2)CC1` (single isomer, unassigned) [Example 302, 4-fluoro-6-(1-(1-(2-methoxyethyl)azepan-4-yl)piperidin-4-yl)-1-methyl-2-(4-(methylsulfonyl)phenyl)-1H-benzo[d]imidazole], the IC50 on human TLR7 is 1900 nM; on human TLR8 it was above 50000 nM; on human TLR9 (setting [1]), 48 nM; on human TLR9 (setting [2]), 48 nM.
Take `COCCN1CCCC(N2CCC(c3cc(F)c4nc(-c5ccc(S(C)(=O)=O)cc5)n(C)c4c3)CC2)CC1` (single isomer, unassigned) [Example 303, 4-fluoro-6-(1-(1-(2-methoxyethyl)azepan-4-yl)piperidin-4-yl)-1-methyl-2-(4-(methylsulfonyl)phenyl)-1H-benzo[d]imidazole]: the IC50 was 4200 nM at human TLR7, above 50000 nM at human TLR8, 14 nM on human TLR9 (setting [1]) and 14 nM against human TLR9 (setting [2]).
In the case of `Cc1cc(C2CCN(C3CCCN(C4CCOCC4)CC3)CC2)cc2c1nc(-c1ccc(S(C)(=O)=O)cc1)n2C` (single isomer, unassigned) [Example 306, 1,4-dimethyl-2-(4-(methylsulfonyl)phenyl)-6-(1-(1-(tetrahydro-2H-pyran-4-yl)azepan-4-yl)piperidin-4-yl)-1H-benzo[d]imidazole], the IC50 at human TLR7 is 9500 nM; on human TLR8, above 50000 nM; on human TLR9 (setting [1]) it was 17 nM; at human TLR9 (setting [2]), 17 nM.
Turning to `Cc1cc(C2CCN(C3CCCN(C4CCOCC4)CC3)CC2)cc2c1nc(-c1ccc(S(C)(=O)=O)cc1)n2C` (single isomer, unassigned) [Example 307, 1,4-dimethyl-2-(4-(methylsulfonyl)phenyl)-6-(1-(1-(tetrahydro-2H-pyran-4-yl)azepan-4-yl)piperidin-4-yl)-1H-benzo[d]imidazole], the IC50 was 20500 nM at human TLR7, above 50000 nM at human TLR8, 3.5 nM on human TLR9 (setting [1]) and 3.5 nM on human TLR9 (setting [2]).
As for `COCCN1CCCC(N2CCC(c3cc(C)c4nc(-c5ccc(S(C)(=O)=O)cc5)n(C)c4c3)CC2)CC1` (single isomer, unassigned) [Example 308, 6-(1-(1-(2-methoxyethyl)azepan-4-yl)piperidin-4-yl)-1,4-dimethyl-2-(4-(methylsulfonyl)phenyl)-1H-benzo[d]imidazole], the IC50 is 2600 nM at human TLR7, above 50000 nM at human TLR8, 6.7 nM on human TLR9 (setting [1]) and 6.7 nM against human TLR9 (setting [2]).
For the compound `COCCN1CCCC(N2CCC(c3cc(C)c4nc(-c5ccc(S(C)(=O)=O)cc5)n(C)c4c3)CC2)CC1` (single isomer, unassigned) [Example 309, 6-(1-(1-(2-methoxyethyl)azepan-4-yl)piperidin-4-yl)-1,4-dimethyl-2-(4-(methylsulfonyl)phenyl)-1H-benzo[d]imidazole], the IC50 at human TLR7 is 1900 nM; at human TLR8, above 50000 nM; on human TLR9 (setting [1]), 34 nM; against human TLR9 (setting [2]), 34 nM.
Regarding `CC(C)CN1C2CCC1CC(N1CCC(c3cc(F)c4nc(-c5ccc(S(C)(=O)=O)cc5)n(C5CC5)c4c3)CC1)C2` (single isomer, unassigned) [Example 322, 1-cyclopropyl-4-fluoro-6-(1-(8-isobutyl-8-azabicyclo[3.2.1]octan-3-yl)piperidin-4-yl)-2-(4-(methylsulfonyl)phenyl)-1H-benzo[d]imidazole], the IC50 is 1400 nM at human TLR7, above 50000 nM at human TLR8, 12 nM at human TLR9 (setting [1]) and 12 nM against human TLR9 (setting [2]).
In the case of `CC(C)CN1C2CCC1CC(N1CCC(c3cc(F)c4nc(-c5ccc(S(C)(=O)=O)cc5)n(C5CC5)c4c3)CC1)C2` (single isomer, unassigned) [Example 323, 1-cyclopropyl-4-fluoro-6-(1-(8-isobutyl-8-azabicyclo[3.2.1]octan-3-yl)piperidin-4-yl)-2-(4-(methylsulfonyl)phenyl)-1H-benzo[d]imidazole], the IC50 at human TLR7 is 2100 nM; on human TLR8, above 50000 nM; at human TLR9 (setting [1]) it was 60 nM; at human TLR9 (setting [2]), 60 nM.

(Values after US12492188B2, “1H-benzo[D]imidazole derivatives as TLR9 inhibitors for the treatment of fibrosis” (BRISTOL-MYERS SQUIBB COMPANY, priority 2020, dated 2025).)
